Laboratory results taken from patent publication US20250276977A1, “TYK2 INHIBITORS AND USES THEREOF” (Alumis Inc., priority 2019, published 2025).
Read-outs that look alike come from different tables or passages of the source.

Assays:
[1] = cn_pd bond, 1,4-dioxane
INFα induced pSTAT5 = INFα induced pSTAT5 in human PBMC; type: cell-based; conditions: Homo sapiens, PBMC, INFα 5000 units/ml, read-out: p-STAT5 IC50
Protocol: Fresh Human PBMCs were resuspended in RPMI 1640 medium with 10% FBS. Cells were seeded in a round bottom 96-well plate at the concentration of 200,000 cells/well. A 10-point dilution series of test compound (top dose 10 uM, 1:5 dilution) was added to the well using the liquid dispenser (Tecan D300e) and incubated for 1 hour at 37 C. Then human INFα recombinant protein (R&D Systems) was added to the well at the final concentration of 5000 units/ml and incubated for 15 minutes at 37 C. Cell lysates were prepared and analyzed by Phospho STAT3 (Tyr705) cellular kit (Cisbio) or Phospho STAT5 (Tyr693) Kit (Meso Scale Discovery) following manufacturer's protocol.
For calculation of the inhibition rate, the relative pSTAT signal of each well=pSTAT signal of each well−the average pSTAT signal of baseline.
The inhibition %=(the average pSTAT signal of INFα treatment wells—the relative of pSTAT signal in each compound containing well)/the average pSTAT signal of INFα treatment wells * 100%
The curve was plotted as the inhibition % (y-axis) vs. compounds concentration (x-axis) and was fitted with log(inhibitor) vs. normalized response—Variable slope by GraphPad Prism7.0.

[2] = target: T1, human TYK2 (JH2domain-pseudokinase) (Homo sapiens, UniProt P29597); test: TYK2 JH2 domain binding assay (KINOMEscan); conditions: duplicate
T1 construct: host or cells: transiently transfected HEK293 cells; unpurified extract
Protocol: Binding constants for the compounds described herein against the JH2 domain were determined by the following protocol for a KINOMEscan® assay (DiscoveRx). A fusion protein of a partial length construct of human TYK2 (JH2domain-pseudokinase) (amino acids G556 to D888 based on reference sequence NP_003322.3) and the DNA binding domain of NFkB is expressed in transiently transfected HEK293 cells. From these HEK 293 cells, extracts are prepared in M-PER extraction buffer (Pierce) in the presence of Protease Inhibitor Cocktail Complete (Roche) and Phosphatase Inhibitor Cocktail Set II (Merck) per manufacturers' instructions. The TYK2 (JH2domain-pseudokinase) fusion protein is labeled with a chimeric double-stranded DNA tag containing the NFkB binding site fused to an amplicon for qPCR readout, which is added directly to the expression extract (the final concentration of DNA-tag in the binding reaction is 0.1 nM).
The liganded beads are blocked with excess biotin and washed with blocking buffer (SeaBlock (Pierce), 1% BSA, 0.05% Tween 20, 1 mM DTT) to remove unbound ligand and to reduce nonspecific binding.
Extracts are used directly in binding assays without any enzyme purification steps at a ≥10,000-fold overall stock dilution (final DNA-tagged enzyme concentration <0.1 nM). Extracts are loaded with DNA-tag and diluted into the binding reaction in a two-step process. First extracts are diluted 1:100 in 1× binding buffer (PBS/0.05% Tween 20/10 mM DTT/0.1% BSA/[…] sonicated salmon sperm DNA) containing 10 nM DNA-tag. This dilution is allowed to equilibrate at room temperature for 15 minutes and then subsequently diluted 1:100 in 1× binding buffer. Test compounds were prepared as 111×stocks in 100% DMSO. […] The compounds are then diluted directly into the assays such that the final concentration of DMSO was 0.9%. All reactions are performed in polypropylene 384-well plates. Each was a final volume of 0.02 mL.
Assays are incubated with shaking for 1 hour at room temperature. Then the beads are pelleted and washed with wash buffer (1×PBS, 0.05% Tween 20) to remove displaced kinase and test compound. […] The kinase concentration in the eluates was measured by qPCR. qPCR reactions are assembled by adding […] of kinase eluate to […] of qPCR master mix containing […] amplicon primers and […] amplicon probe. The qPCR protocol consisted of a 10 minute hot start at 95° C., followed by 35 cycles of 95° C. for 15 seconds, 60° C. for 1 minute.
Test compounds are prepared as 111×stocks in 100% DMSO. […] The compounds are then diluted directly into the assays such that the final concentration of DMSO was 0.9%. The Kds are determined using a compound top concentration of 30,000 nM. Kd measurements are performed in duplicate.
Binding constants (Kds) were calculated with a standard dose-response curve using the Hill equation: […]
The Hill Slope was set to −1. Curves were fitted using a non-linear least square fit with the Levenberg-Marquardt algorithm (Levenberg, K., A method for the solution of certain non-linear problems in least squares, Q. Appl. Math. 2, 164-168 (1944)).

[3] = Pharmacokinetic studies in Sprague Dawley rats; type: in vivo; conditions: rat, plasma, male Sprague Dawley rats
Protocol: The pharmacokinetics of test compounds were evaluated in male Sprague Dawley rats when administered via oral gavage and IV injection. The test compound was suspended in 0.5% methylcellulose for oral gavage and dissolved in 5% DMSO/5% Solutol/90% saline for IV injection. The animals were fasted overnight before administration. Plasma samples were collected predose and at 0.5, 1, 3, 6, 9, 12, and 24 hours postdose. The samples were analyzed by LC/MS/MS and the concentration of test compound at each timepoint was determined by linear regression. Pharmacokinetic parameters were calculated from the plasma concentrations using Pheonix WinNonlin.

T1 sequence (P29597 556-888): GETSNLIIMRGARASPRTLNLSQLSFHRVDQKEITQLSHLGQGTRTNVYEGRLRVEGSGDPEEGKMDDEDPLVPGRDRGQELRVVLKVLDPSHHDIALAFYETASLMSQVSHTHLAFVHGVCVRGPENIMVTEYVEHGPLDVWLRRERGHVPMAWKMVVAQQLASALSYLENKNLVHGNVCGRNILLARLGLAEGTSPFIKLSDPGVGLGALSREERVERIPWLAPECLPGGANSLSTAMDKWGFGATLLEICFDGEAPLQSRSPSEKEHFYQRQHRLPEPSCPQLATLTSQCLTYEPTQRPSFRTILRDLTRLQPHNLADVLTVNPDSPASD

## COc1ccc2nc1Nc1cc(N(C)C(=O)OC(C)(C)C)n3ncc(c3n1)C(=O)N[C@H](C)COC2
[1]; from COc1ccc(COC[C@@H](C)NC(=O)c2cnn3c(N(C)C(=O)OC(C)(C)C)cc(Cl)nc23)nc1N, 14-membered ring, Pd2(dba)3/XPhos/Cs2CO3, 6.3 mM, 95.0 °C, 3.5 h
  ring closure, isolated yield: 84.2%

## CNC(=O)Oc1cc(Cl)nn2c(C(=O)NC3CC(OCc4ccc(OC)c([N+](=O)[O-])c4)C3)cnc12 (stereo not shown)
[1]; the molecule shown is the open-chain precursor, 15-membered ring, tBuXPhos-Pd-G3/Cs2CO3, 50.0 mM, 80.0 °C
  ring closure, isolated yield: 20.2%

## C[C@@H]1COCc2cc(c3nccn3c2)Nc2cc(N(C)C(=O)OC(C)(C)C)n3ncc(c3n2)C(=O)N1
[1]; from C[C@H](COCc1cc(N)c2nccn2c1)NC(=O)c1cnn2c(N(C)C(=O)OC(C)(C)C)cc(Cl)nc12, 14-membered ring, tBuXPhos-Pd-G3/Cs2CO3, 11.5 mM, 80.0 °C, 2.0 h
  ring closure, isolated yield: 72%

## COc1ccc2cc1Nc1cc(N(C)C(=O)OC(C)(C)C)c3ncc(n3n1)C(=O)NC1(CC1)COC2
[1]; from COc1ccc(COCC2(NC(=O)c3cnc4c(N(C)C(=O)OC(C)(C)C)cc(Cl)nn34)CC2)cc1N, 14-membered ring, tBuXPhos-Pd-G3/Cs2CO3, 15.0 mM, 85.0 °C, 2.0 h
  ring closure, isolated yield: 58.7%

## COc1nnc2cc1Nc1cc(N(C)C(=O)OC(C)(C)C)n3ncc(c3n1)C(=O)N[C@H](C)COC2
[1]; from COc1nnc(COC[C@@H](C)NC(=O)c2cnn3c(N(C)C(=O)OC(C)(C)C)cc(Cl)nc23)cc1N, 14-membered ring, tBuXPhos-Pd-G3/Cs2CO3, […], 80.0 °C, 2.0 h
  ring closure, isolated yield: 21.7%

## COc1c(F)cc2cc1Nc1cc(N(C)C(=O)OC(C)(C)C)n3ncc(c3n1)C(=O)N[C@H](C)COC2
[1]; from COc1c(N)cc(COC[C@@H](C)NC(=O)c2cnn3c(N(C)C(=O)OC(C)(C)C)cc(Cl)nc23)cc1F, 14-membered ring, tBuXPhos-Pd-G3/Cs2CO3, 8.4 mM, 80.0 °C, 2.0 h
  ring closure, isolated yield: 52.5%

## COc1c2cc(c(F)c1F)COC[C@@H](C)NC(=O)c1cnc3c(NC(=O)OC(C)(C)C)cc(nn13)N2
[1]; from COc1c(N)cc(COC[C@@H](C)NC(=O)c2cnc3c(NC(=O)OC(C)(C)C)cc(Cl)nn23)c(F)c1F, 14-membered ring, tBuXPhos-Pd-G3/Cs2CO3, 3.5 mM, 80.0 °C, 2.0 h
  ring closure, isolated yield: 47%

## COc1cc(F)c2cc1Nc1cc(N(C)C(=O)OC(C)(C)C)c3ncc(n3n1)C(=O)NC(C)COC2 (stereo not shown)
[1]; from COc1cc(F)c(COCC(C)NC(=O)c2cnc3c(N(C)C(=O)OC(C)(C)C)cc(Cl)nn23)cc1N, 14-membered ring, tBuXPhos-Pd-G3/Cs2CO3, 4.1 mM, 85.0 °C, 2.0 h
  ring closure, isolated yield: 53.6%

## C[C@@H]1COCc2cc(c(=O)n(C)n2)Nc2cc(N(C)C(=O)OC(C)(C)C)c3ncc(n3n2)C(=O)N1
[1]; from C[C@H](COCc1cc(N)c(=O)n(C)n1)NC(=O)c1cnc2c(N(C)C(=O)OC(C)(C)C)cc(Cl)nn12, 14-membered ring, tBuXPhos-Pd-G3/Cs2CO3, […], 80.0 °C, 2.0 h
  ring closure, isolated yield: 78.2%

## C[C@@H]1COCc2cc(c(=O)n(C)n2)Nc2cc(N(C)C(=O)OC(C)(C)C)n3ncc(c3n2)C(=O)N1
[1]; from C[C@H](COCc1cc(N)c(=O)n(C)n1)NC(=O)c1cnn2c(N(C)C(=O)OC(C)(C)C)cc(Cl)nc12, 14-membered ring, tBuXPhos-Pd-G3/Cs2CO3, 19.0 mM, 85.0 °C, 2.0 h
  ring closure, isolated yield: 70%

## COc1cc(F)c2cc1Nc1cc(NC(=O)OC(C)(C)C)c3ncc(n3n1)C(=O)N[C@H](C)COC2
[1]; from COc1cc(F)c(COC[C@@H](C)NC(=O)c2cnc3c(NC(=O)OC(C)(C)C)cc(Cl)nn23)cc1N, 14-membered ring, tBuXPhos-Pd-G3/Cs2CO3, 10.25 mM, 80.0 °C, 2.0 h
  ring closure, isolated yield: 56.1%

## C[C@@H]1COCc2cc(c3cn(C)nc3c2)Nc2cc(N(C)C(=O)OC(C)(C)C)n3ncc(c3n2)C(=O)N1
[1]; from C[C@H](COCc1cc(N)c2cn(C)nc2c1)NC(=O)c1cnn2c(N(C)C(=O)OC(C)(C)C)cc(Cl)nc12, 14-membered ring, Pd2(dba)3/XPhos/Cs2CO3, 18.0 mM, 95.0 °C, 3.5 h
  ring closure, isolated yield: 82.2%

## COc1cc(F)c2cc1Nc1cc(N(C)C(=O)OC(C)(C)C)n3ncc(c3n1)C(=O)N[C@H](C)COC2
[1]; from COc1cc(F)c(COC[C@@H](C)NC(=O)c2cnn3c(N(C)C(=O)OC(C)(C)C)cc(Cl)nc23)cc1N, 14-membered ring, Pd2(dba)3/XPhos/Cs2CO3, 23.3 mM, 90.0 °C, 1.0 h
  ring closure, isolated yield: 74%

## CNc1cc2nn3c(cnc13)C(=O)NCCOCc1ccc(OC)c(c1)N2 [Example 6]
INFα induced pSTAT5
  IC50: 26.2 nM
[2]
  Kd: 0.071 nM

## COc1ccc2cc1Nc1cc(N(C)C(=O)OC(C)(C)C)c3ncc(n3n1)C(=O)N[C@H](C)CN(C)C2
[1]; from COc1ccc(CN(C)C[C@@H](C)NC(=O)c2cnc3c(N(C)C(=O)OC(C)(C)C)cc(Cl)nn23)cc1N, 14-membered ring, Pd2(dba)3/XPhos/Cs2CO3, 56.0 mM, 95.0 °C, 3.5 h
  ring closure, isolated yield: 10.8%

## CNc1cc2nn3c(cnc13)C(=O)N[C@H](C)COCc1cc(c(=O)n(C)c1)N2 [Example 15]
INFα induced pSTAT5
  IC50: 5.1 nM
[3]; iv, I.V. (1 mg/kg)
  AUC: 472 ± 93 ng·h/mL
  C0: 539 ± 54 ng/mL
  clearance: 36.1 ± 8 mL/min/kg
  half-life: 1.02 ± 0.059 h
[3]; iv, I.V. (1 mg/kg), read-out: Vdss
  Vd: 2.17 ± 0.08 L/kg
[3]; Oral (5 mg/kg)
  AUC: 147 ± 40 ng·h/mL
  Cmax: 22.2 ± 5 ng/mL
  Tmax: 2.67 ± 1.2 h
  bioavailability: 6.23 ± 1.7%
  half-life: 4.11 ± 1.9 h

## Cc1cc2nc(n1)COC[C@@H](C)NC(=O)c1cnc3c(N(C)C(=O)OC(C)(C)C)cc(nn13)N2
[1]; from Cc1cc(N)nc(COC[C@@H](C)NC(=O)c2cnc3c(N(C)C(=O)OC(C)(C)C)cc(Cl)nn23)n1, 14-membered ring, Pd2(dba)3/XPhos/Cs2CO3, 40.0 mM, 80.0 °C, 1.0 h
  ring closure, isolated yield: 53%

## C[C@@H]1COCc2ccc(F)c(c2)Nc2cc(N(C)C(=O)OC(C)(C)C)n3ncc(c3n2)C(=O)N1
[1]; from C[C@H](COCc1ccc(F)c(N)c1)NC(=O)c1cnn2c(N(C)C(=O)OC(C)(C)C)cc(Cl)nc12, 14-membered ring, tBuXPhos-Pd-G3/Cs2CO3, 20.0 mM, 85.0 °C, 2.0 h
  ring closure, isolated yield: 30%

## COc1c(F)cc2cc1Nc1cc(NC(=O)OC(C)(C)C)c3ncc(n3n1)C(=O)N[C@H](C)COC2
[1]; from COc1c(N)cc(COC[C@@H](C)NC(=O)c2cnc3c(NC(=O)OC(C)(C)C)cc(Cl)nn23)cc1F, 14-membered ring, tBuXPhos-Pd-G3/Cs2CO3, 8.4 mM, 80.0 °C, 2.0 h
  ring closure, isolated yield: 52.5%

## COc1cc2cnn3c2cc1Nc1cc(N(C)C(=O)OC(C)(C)C)c2ncc(n2n1)C(=O)NC(C)CC3 (stereo not shown)
[1]; from COc1cc2cnn(CCC(C)NC(=O)c3cnc4c(N(C)C(=O)OC(C)(C)C)cc(Cl)nn34)c2cc1N, 14-membered ring, tBuXPhos-Pd-G3/Cs2CO3, 25.0 mM, 80.0 °C, 3.0 h
  ring closure, isolated yield: 59%
